Assay results taken from paper PMC5218480 (PLoS ONE, 2017).

System: MV-4-11 cells
Experiment: Gene expression microarray analysis (Affymetrix PrimeView) and GSEA
Assay type: cell-based, human
Set-up: RFU PODN (11730768_x_at) / Fold change /veh PODN (11730768_x_at) / RFU LINC00158 (11744669_a_at) / Fold change /veh LINC00158 (11744669_a_at) / RFU DUSP10 (11751237_a_at) / Fold change /veh DUSP10 (11751237_a_at) / RFU ID3 (11757404_x_at) / Fold change /veh ID3 (11757404_x_at) / RFU PLEKHG5 (11737974_s_at) / Fold change /veh PLEKHG5 (11737974_s_at) / RFU LRRC4B (11730491_at) / Fold change /veh LRRC4B (11730491_at) / RFU GIMAP4 (11747438_a_at) / Fold change /veh GIMAP4 (11747438_a_at) / RFU KRT8 (11758183_x_at) / Fold change /veh KRT8 (11758183_x_at) / RFU CNN1 (11734310_a_at) / Fold change /veh CNN1 (11734310_a_at) / RFU VPS37D (11726825_at) / Fold change /veh VPS37D (11726825_at) / RFU C10orf10 (11716522_x_at) / Fold change /veh C10orf10 (11716522_x_at) / RFU KIR2DL2 /// KIR2DL4 /// KIR2DL5A /// KIR2DL5B /// KIR2DS1 /// KIR2DS2 /// KIR2DS3 /// KIR2DS4 /// KIR3DL3 /// KIR3DL3 /// KIR3DS1 (11738374_at) / Fold change /veh KIR2DL2 /// KIR2DL4 /// KIR2DL5A /// KIR2DL5B /// KIR2DS1 /// KIR2DS2 /// KIR2DS3 /// KIR2DS4 /// KIR3DL3 /// KIR3DL3 /// KIR3DS1 (11738374_at) / RFU C1QL1 (11718748_at) / Fold change /veh C1QL1 (11718748_at) / RFU TMPRSS4 (11747572_a_at) / Fold change /veh TMPRSS4 (11747572_a_at) / RFU HAMP (11756126_x_at) / Fold change /veh HAMP (11756126_x_at) / RFU RNFT2 (11725882_a_at) / Fold change /veh RNFT2 (11725882_a_at) / RFU NR4A2 (11747474_a_at) / Fold change /veh NR4A2 (11747474_a_at) / RFU ABCC12 (11746883_a_at) / Fold change /veh ABCC12 (11746883_a_at) / RFU TMEM136 (11760407_x_at) / Fold change /veh TMEM136 (11760407_x_at) / RFU CLDN22 /// WWC2 (11732394_at) / Fold change /veh CLDN22 /// WWC2 (11732394_at) / RFU HLA-DPB1 (11760878_x_at) / Fold change /veh HLA-DPB1 (11760878_x_at) / RFU SPINT1 (11716480_a_at) / Fold change /veh SPINT1 (11716480_a_at) / RFU GAP43 (11754022_s_at) / Fold change /veh GAP43 (11754022_s_at) / RFU A4GNT (11735810_at) / Fold change /veh A4GNT (11735810_at) / RFU PRB3 (11715151_x_at) / Fold change /veh PRB3 (11715151_x_at) / RFU TUBB4B (11761932_at) / Fold change /veh TUBB4B (11761932_at) / RFU CAPN14 (11732068_a_at) / Fold change /veh CAPN14 (11732068_a_at) / RFU TMCC2 (11721928_a_at) / Fold change /veh TMCC2 (11721928_a_at) / RFU IRGQ (11745062_a_at) / Fold change /veh IRGQ (11745062_a_at) / RFU FAM174B (11720279_a_at) / Fold change /veh FAM174B (11720279_a_at) / RFU TMPRSS4 (11748680_a_at) / Fold change /veh TMPRSS4 (11748680_a_at) / RFU FAM212B (11763350_a_at) / Fold change /veh FAM212B (11763350_a_at) / RFU PLEKHG5 (11743358_a_at) / Fold change /veh PLEKHG5 (11743358_a_at) / RFU ZSCAN30 (11745921_a_at) / Fold change /veh ZSCAN30 (11745921_a_at) / RFU CMKLR1 (11741424_a_at) / Fold change /veh CMKLR1 (11741424_a_at) / RFU LOC101060620 /// MAPK8IP1 (11723275_at) / Fold change /veh LOC101060620 /// MAPK8IP1 (11723275_at) / RFU SPTSSB (11747773_x_at) / Fold change /veh SPTSSB (11747773_x_at) / RFU PRSS12 (11739890_at) / Fold change /veh PRSS12 (11739890_at) / RFU BIN1 (11741810_x_at) / Fold change /veh BIN1 (11741810_x_at) / RFU WNT11 (11732464_a_at) / Fold change /veh WNT11 (11732464_a_at) / RFU C10orf10 (11716521_a_at) / Fold change /veh C10orf10 (11716521_a_at) / RFU C5orf56 (11738089_at) / Fold change /veh C5orf56 (11738089_at) / RFU CYB561 (11721691_x_at) / Fold change /veh CYB561 (11721691_x_at) / RFU ANKRD19P (11752326_a_at) / Fold change /veh ANKRD19P (11752326_a_at) / RFU OR2T12 /// OR2T33 /// OR2T8 (11738714_s_at) / Fold change /veh OR2T12 /// OR2T33 /// OR2T8 (11738714_s_at) / RFU VCAN (11748164_a_at) / Fold change /veh VCAN (11748164_a_at) / RFU JSRP1 (11732532_at) / Fold change /veh JSRP1 (11732532_at) / RFU KRTAP10-11 (11738290_x_at) / Fold change /veh KRTAP10-11 (11738290_x_at) / RFU MYO3A (11730013_a_at) / Fold change /veh MYO3A (11730013_a_at) / RFU EBF3 (11725865_a_at) / Fold change /veh EBF3 (11725865_a_at) / RFU CAMK2N1 (11719241_x_at) / Fold change /veh CAMK2N1 (11719241_x_at) / RFU C5orf56 (11738088_a_at) / Fold change /veh C5orf56 (11738088_a_at) / RFU OLFML3 (11715873_a_at) / Fold change /veh OLFML3 (11715873_a_at) / RFU LOC100653217 /// NTM (11731650_a_at) / Fold change /veh LOC100653217 /// NTM (11731650_a_at) / RFU MAPK11 (11762145_a_at) / Fold change /veh MAPK11 (11762145_a_at) / RFU FIZ1 (11724087_x_at) / Fold change /veh FIZ1 (11724087_x_at) / RFU OASL (11726364_x_at) / Fold change /veh OASL (11726364_x_at) / RFU SOX15 (11748057_x_at) / Fold change /veh SOX15 (11748057_x_at) / RFU CD79A (11719716_a_at) / Fold change /veh CD79A (11719716_a_at) / RFU HIST1H1D (11736915_at) / Fold change /veh HIST1H1D (11736915_at) / RFU CASKIN2 (11723855_a_at) / Fold change /veh CASKIN2 (11723855_a_at) / RFU LOC730098 (11760151_x_at) / Fold change /veh LOC730098 (11760151_x_at) / RFU OR4N2 (11742367_at) / Fold change /veh OR4N2 (11742367_at) / RFU PRRT2 (11749266_a_at) / Fold change /veh PRRT2 (11749266_a_at) / RFU SNX32 (11753110_a_at) / Fold change /veh SNX32 (11753110_a_at) / RFU CDHR5 (11726645_a_at) / Fold change /veh CDHR5 (11726645_a_at) / RFU RCAN1 (11760418_a_at) / Fold change /veh RCAN1 (11760418_a_at) / RFU FAM167A (11723789_a_at) / Fold change /veh FAM167A (11723789_a_at) / RFU FAM26E (11764081_at) / Fold change /veh FAM26E (11764081_at) / RFU ISYNA1 (11749810_s_at) / Fold change /veh ISYNA1 (11749810_s_at) / RFU ACY1 (11761880_at) / Fold change /veh ACY1 (11761880_at) / RFU 11764098_at / Fold change /veh 11764098_at / RFU SAMD14 (11745864_x_at) / Fold change /veh SAMD14 (11745864_x_at) / RFU NPB (11741838_a_at) / Fold change /veh NPB (11741838_a_at) / RFU TMPRSS6 (11731388_a_at) / Fold change /veh TMPRSS6 (11731388_a_at) / RFU KRTAP10-2 (11738614_at) / Fold change /veh KRTAP10-2 (11738614_at) / RFU ARHGAP8 /// PRR5-ARHGAP8 (11727945_x_at) / Fold change /veh ARHGAP8 /// PRR5-ARHGAP8 (11727945_x_at) / RFU KRTAP5-7 /// NADSYN1 (11734609_at) / Fold change /veh KRTAP5-7 /// NADSYN1 (11734609_at) / RFU RASL12 (11751679_a_at) / Fold change /veh RASL12 (11751679_a_at) / RFU CDKN2B (11736163_a_at) / Fold change /veh CDKN2B (11736163_a_at) / RFU PRF1 (11729649_at) / Fold change /veh PRF1 (11729649_at) / RFU, ZNF638 /// ZNF638-IT1 / Fold change vs veh, ZNF638 /// ZNF638-IT1 / RFU, PANK3 / Fold change vs veh, PANK3 / RFU, SH3YL1 / Fold change vs veh, SH3YL1 / RFU, ZEB2 / Fold change vs veh, ZEB2 / RFU, NRIP1 / Fold change vs veh, NRIP1 / RFU, PTTG1IP / Fold change vs veh, PTTG1IP / RFU, CAPN2 / Fold change vs veh, CAPN2 / RFU, MED14 / Fold change vs veh, MED14 / RFU, SNORA58 / Fold change vs veh, SNORA58 / RFU, C1orf63 / Fold change vs veh, C1orf63 / RFU, LRRFIP1 / Fold change vs veh, LRRFIP1 / RFU, NDUFAF7 / Fold change vs veh, NDUFAF7 / RFU, SLC12A2 / Fold change vs veh, SLC12A2 / RFU, IBTK / Fold change vs veh, IBTK / RFU, ESF1 / Fold change vs veh, ESF1 / Fold change vs veh, TMEM50B / RFU, TAOK1 / Fold change vs veh, TAOK1 / RFU, ACBD3 / Fold change vs veh, ACBD3 / RFU, TMA16 / Fold change vs veh, TMA16 / RFU, RWDD3 / Fold change vs veh, RWDD3 / RFU, BCAT1 / Fold change vs veh, BCAT1 / RFU, EDEM3 / Fold change vs veh, EDEM3 / RFU, TMEM33 / Fold change vs veh, TMEM33 / RFU, WDR75 / Fold change vs veh, WDR75 / RFU, AHCTF1 / Fold change vs veh, AHCTF1 / RFU, TFRC / Fold change vs veh, TFRC / RFU, ZDHHC17 / Fold change vs veh, ZDHHC17 / RFU, NOM1 / Fold change vs veh, NOM1 / RFU, ARL8B / Fold change vs veh, ARL8B / RFU, ZBTB11 / Fold change vs veh, ZBTB11 / RFU, TAMM41 / Fold change vs veh, TAMM41 / RFU, KIAA1704 /// LOC100996395 / Fold change vs veh, KIAA1704 /// LOC100996395 / RFU, ING1 / Fold change vs veh, ING1 / RFU, TRMT61B / Fold change vs veh, TRMT61B / RFU, FUBP3 / Fold change vs veh, FUBP3 / RFU, TP53 / Fold change vs veh, TP53 / RFU, TNKS2 / Fold change vs veh, TNKS2 / RFU, ZFP14 / Fold change vs veh, ZFP14 / RFU, ACTR2 / Fold change vs veh, ACTR2 / RFU, PPP3R1 / Fold change vs veh, PPP3R1 / RFU, PIK3R1 / Fold change vs veh, PIK3R1 / RFU, HNRNPA1 / Fold change vs veh, HNRNPA1 / RFU, RNF170 / Fold change vs veh, RNF170 / RFU, ZNF28 / Fold change vs veh, ZNF28 / RFU, RNGTT / Fold change vs veh, RNGTT / RFU, OGT / Fold change vs veh, OGT / RFU, BRD1 / Fold change vs veh, BRD1 / RFU, MARS / Fold change vs veh, MARS / RFU, ZNF655 / Fold change vs veh, ZNF655 / RFU, FAHD1 / Fold change vs veh, FAHD1 / RFU, BDP1 / Fold change vs veh, BDP1 / RFU, LRRCC1 / Fold change vs veh, LRRCC1 / RFU, ARID1A / Fold change vs veh, ARID1A / RFU, ZNF146 / Fold change vs veh, ZNF146 / RFU, ZNF330 / Fold change vs veh, ZNF330 / RFU, GPN3 / Fold change vs veh, GPN3 / RFU, C9orf123 / Fold change vs veh, C9orf123 / RFU, N4BP2L2 / Fold change vs veh, N4BP2L2 / RFU, ARFIP1 / Fold change vs veh, ARFIP1 / RFU, FAM179B / Fold change vs veh, FAM179B / RFU, BCL10 / Fold change vs veh, BCL10 / RFU, UHRF1BP1L / Fold change vs veh, UHRF1BP1L / RFU, BET1 / Fold change vs veh, BET1 / RFU, CNOT2 / Fold change vs veh, CNOT2 / RFU, ZNF268 / Fold change vs veh, ZNF268 / Fold change vs veh, ZNF507 / RFU, DGCR2 / Fold change vs veh, DGCR2 / RFU, WDSUB1 / Fold change vs veh, WDSUB1 / Fold change vs veh, HSP90B1 /// MIR3652 / RFU, ADSS / Fold change vs veh, ADSS / RFU, GK / Fold change vs veh, GK / RFU, ZNF148 / Fold change vs veh, ZNF148 / RFU, TAF9 / Fold change vs veh, TAF9 / RFU, SLC1A5 / Fold change vs veh, SLC1A5 / RFU, SLMO2 / Fold change vs veh, SLMO2 / RFU, ABCC4 / Fold change vs veh, ABCC4 / RFU, LOC101060439 /// RAP1B / Fold change vs veh, LOC101060439 /// RAP1B / RFU, RFX7 / Fold change vs veh, RFX7 / RFU, GTPBP10 / Fold change vs veh, GTPBP10 / RFU, CNEP1R1 / Fold change vs veh, CNEP1R1 / RFU, BIVM-ERCC5 /// ERCC5 / Fold change vs veh, BIVM-ERCC5 /// ERCC5 / RFU, ILF3 / Fold change vs veh, ILF3 / RFU 11762660_at / Fold change /veh 11762660_at / RFU VCAN (11757783_s_at) / Fold change /veh VCAN (11757783_s_at) / RFU DDX43 (11728927_at) / Fold change /veh DDX43 (11728927_at) / RFU KRT8 (11758188_x_at) / Fold change /veh KRT8 (11758188_x_at) / RFU NKD1 (11759106_at) / Fold change /veh NKD1 (11759106_at) / RFU SRD5A1 (11742802_a_at) / Fold change /veh SRD5A1 (11742802_a_at) / RFU TPSAB1 /// TPSB2 (11721975_s_at) / Fold change /veh TPSAB1 /// TPSB2 (11721975_s_at) / RFU GSTM3 (11746129_a_at) / Fold change /veh GSTM3 (11746129_a_at) / RFU IL23R (11737362_x_at) / Fold change /veh IL23R (11737362_x_at) / RFU TMEM51 (11727254_a_at) / Fold change /veh TMEM51 (11727254_a_at) / RFU PIWIL2 (11732686_x_at) / Fold change /veh PIWIL2 (11732686_x_at) / RFU ORM1 (11744905_x_at) / Fold change /veh ORM1 (11744905_x_at) / RFU CCDC152 (11743942_at) / Fold change /veh CCDC152 (11743942_at) / RFU ECM1 (11717891_a_at) / Fold change /veh ECM1 (11717891_a_at) / RFU IL23R (11748794_a_at) / Fold change /veh IL23R (11748794_a_at) / RFU TNFAIP8L3 (11732012_x_at) / Fold change /veh TNFAIP8L3 (11732012_x_at) / RFU MBOAT4 (11741988_at) / Fold change /veh MBOAT4 (11741988_at) / RFU 11764193_at / Fold change /veh 11764193_at / RFU TMEM53 (11763286_at) / Fold change /veh TMEM53 (11763286_at) / RFU MAGEB2 (11727129_at) / Fold change /veh MAGEB2 (11727129_at) / RFU TMEM200A (11744735_a_at) / Fold change /veh TMEM200A (11744735_a_at) / RFU CCDC152 (11751479_a_at) / Fold change /veh CCDC152 (11751479_a_at) / RFU FAM211A (11726209_a_at) / Fold change /veh FAM211A (11726209_a_at) / RFU RGS16 (11746705_a_at) / Fold change /veh RGS16 (11746705_a_at) / RFU VCAN (11755009_s_at) / Fold change /veh VCAN (11755009_s_at) / RFU RHOB (11743442_s_at) / Fold change /veh RHOB (11743442_s_at) / RFU RGS16 (11720943_a_at) / Fold change /veh RGS16 (11720943_a_at) / RFU RGS16 (11720944_at) / Fold change /veh RGS16 (11720944_at) / RFU, VPS4B / Fold change vs veh, VPS4B / RFU, CREB1 / Fold change vs veh, CREB1 / RFU, DNAJC13 / Fold change vs veh, DNAJC13 / RFU, GNAQ / Fold change vs veh, GNAQ / RFU, CDK5R1 / Fold change vs veh, CDK5R1 / RFU, ZRANB3 / Fold change vs veh, ZRANB3 / RFU, CUL4A / Fold change vs veh, CUL4A / RFU, CCNY / Fold change vs veh, CCNY / RFU, UFL1 / Fold change vs veh, UFL1 / RFU, COG3 / Fold change vs veh, COG3 / RFU, DIAPH2 / Fold change vs veh, DIAPH2 / RFU, SKA2 / Fold change vs veh, SKA2 / RFU, AFF3 / Fold change vs veh, AFF3 / RFU, LMF1 / Fold change vs veh, LMF1 / RFU, IPO11 / Fold change vs veh, IPO11 / RFU, DFFB / Fold change vs veh, DFFB / RFU, FOXP1 / Fold change vs veh, FOXP1 / RFU, CARD8 / Fold change vs veh, CARD8 / RFU, STRN3 / Fold change vs veh, STRN3 / RFU, ADK / Fold change vs veh, ADK / RFU, RASSF2 / Fold change vs veh, RASSF2 / RFU, WIPF1 / Fold change vs veh, WIPF1 / RFU, LARP1B / Fold change vs veh, LARP1B / RFU, RASA1 / Fold change vs veh, RASA1 / RFU, RB1 / Fold change vs veh, RB1 / RFU, PPFIA1 / Fold change vs veh, PPFIA1 / RFU, MAT2A / Fold change vs veh, MAT2A / RFU, CCT5 / Fold change vs veh, CCT5 / RFU, WDR92 / Fold change vs veh, WDR92 / RFU, CUX1 / Fold change vs veh, CUX1 / RFU, TTC7A / Fold change vs veh, TTC7A / RFU, TMEM135 / Fold change vs veh, TMEM135 / RFU, DEPTOR / Fold change vs veh, DEPTOR / RFU, CPM / Fold change vs veh, CPM / RFU, DNAJB6 / Fold change vs veh, DNAJB6 / RFU, CACNA2D3 / Fold change vs veh, CACNA2D3 / RFU, DTX4 / Fold change vs veh, DTX4 / RFU, TFCP2 / Fold change vs veh, TFCP2 / RFU, GMCL1 /// GMCL1P1 / Fold change vs veh, GMCL1 /// GMCL1P1 / RFU, AEBP2 / Fold change vs veh, AEBP2 / RFU, SNHG1 /// SNORD22 /// SNORD25 /// SNORD26 /// SNORD27 /// SNORD28 /// SNORD29 /// SNORD31 / Fold change vs veh, SNHG1 /// SNORD22 /// SNORD25 /// SNORD26 /// SNORD27 /// SNORD28 /// SNORD29 /// SNORD31 / Fold change (Aza/veh), C12orf56 (ProbeSet 11735607_a_at) / Fold change (ACY-1035/veh), C12orf56 (ProbeSet 11735607_a_at) / Fold change (Aza/veh), FGFR1OP (ProbeSet 11751329_s_at) / Fold change (ACY-1035/veh), FGFR1OP (ProbeSet 11751329_s_at) / Fold change (Aza/veh), VPS36 (ProbeSet 11739960_a_at) / Fold change (ACY-1035/veh), VPS36 (ProbeSet 11739960_a_at) / RFU SYPL1 (11715823_x_at) / Fold change /veh SYPL1 (11715823_x_at) / RFU IGFBP7 (11715501_s_at) / Fold change /veh IGFBP7 (11715501_s_at) / RFU REEP3 (11722064_at) / Fold change /veh REEP3 (11722064_at) / RFU IGLL1 (11728026_x_at) / Fold change /veh IGLL1 (11728026_x_at): dose or concentration left out as unconfirmed
Conditions: ProbeSet 11739263_x_at; LIST D

## Nc1ncn([C@@H]2O[C@H](CO)[C@@H](O)[C@H]2O)c(=O)n1 [azacitidine]
  RFU, VPS4B: 59.01 RFU
